What was measured:
Aβ-42 = Aβ-42 level in conditioned media of 2B7 cells (MSD 3-PLEX ELISA); type: cell-based; conditions: Homo sapiens, compound 5 hours at 37° C., 1% DMSO, percent vehicle fit to 4 parameter curve
Procedure: (§1) Assays were conducted to determine the ability of a Compound of Formula I to modulate […], and Aβ-38.
(§2) Plates with capture antibodies were blocked for 1-2 hours at room temperature with 150 μL of the manufactures blocking reagent.
(§3) Cultured 2B7 cells in 96 well plate with 250 uL of media per well until confluent;
(§4) Prepared serial dilutions of compounds in DMSO at 100× the final desired concentration;
(§5) Washed wells with 2B7 cells 1× with 250 uL of media;
(§6) Diluted DMSO stocks 1:100 into media:
(§7) Added 250 μL of media containing compounds (1% DMSO) to wells with 2B7 cells for 5 hours at 37° C.
(§8) Diluted conditioned media: 1 part media with 1% DMSO and 1 part blocking buffer;
(§9) 150 μL of the 250 μL of conditioned media were used.
(§10) Standard Curve Sample Prep:
(§11) Prepared per manufacturer's protocol (see above)
(§12) Seven point standard curve samples were prepared that contained Aβ-42, Aβ-40, and Aβ-38. The highest concentration of Aβ-42 and Aβ-38 was 3,000 pg/mL and the highest concentration of Aβ-40 was 10,000 pg/mL. Subsequent serial dilutions were 1:3 and the final composition of each sample was 1 part blocking buffer and 1 part cell medium containing 1% DMSO.
(§13) Overnight Sample Incubation:
(§14) Blocked plates are washed 5× with MSD wash buffer with a plate washer
(§15) 25 uL of detection antibody and blocker G reagent in MSD blocking solution is added
(§16) 25 uL of samples (1 part conditioned media containing 1% DMSO and 1 part MSD blocking buffer) are then added.
(§17) plates are incubated overnight at 4 degrees C. or 2 hours at room temp
(§18) Wash wells 5× with MSD wash buffer
(§19) Added 150 μL 2×MSD read buffer
(§20) A-Beta peptide levels for each peptide are calculated from the standard curve using the MSD software provided with the MSD 2400 Imager. Percent vehicle values for each compound dosage were then calculated and fit to a 4 parameter curve generating IC50 values.

Aβ-38 = Aβ-38 level in conditioned media of 2B7 cells (MSD 3-PLEX ELISA); type: cell-based; conditions: Homo sapiens, compound 5 hours at 37° C., 1% DMSO, percent vehicle fit to 4 parameter curve
Procedure: as §1, §2, §3, §4, §5, §6, §7, §8, §9, §10, §11, §12, §13, §14, §15, §16, §17, §18, §19, §20

| Compound | IC50 (Aβ-42) [nM] | IC50 (Aβ-38) [nM] |
| --- | --- | --- |
| CC(C)[C@@H](OC(=O)N1CCC1)[C@H]1C[C@@H](C)[C@H]2[C@H](O1)[C@H](O)[C@@]1(C)[C@@H]3CC[C@H]4C(C)(C)[C@@H](O[C@H]5CN(C(=O)CNS(=O)(=O)C(F)(F)F)CCO5)CCC45C[C@@]35CC[C@]21C (stereo partly drawn) | 1000 to 10000 | < 1000 |
| CO[C@@H]([C@H]1C[C@@H](C)[C@H]2[C@H](O1)[C@H](O)[C@@]1(C)[C@@H]3CC[C@H]4C(C)(C)[C@@H](O[C@H]5CN(C6(C)COC6)CCO5)CCC45C[C@@]35CC[C@]21C)C(C)(C)O (stereo partly drawn) | 1000 to 10000 | 1000 to 10000 |
| CCO[C@@H]([C@@H]1C[C@H]2[C@H]([C@H](C)C1)[C@@]1(C)CCC34C[C@@]35CC[C@H](O[C@H]3CN([C@@H](C)C(=O)N(C)C)CCO3)C(C)(C)[C@@H]5CC[C@H]4[C@]1(C)[C@H]2O)C(C)(C)O (stereo partly drawn) | < 1000 | – |
| CO[C@@H](C1C[C@@H](C)[C@H]2C(O1)[C@H](O)[C@@]1(C)C3CC[C@H]4C(C)(C)[C@@H](O[C@H]5CN(CCN6CCC6)CCO5)CCC45C[C@@]35CC[C@]21C)C(C)(C)O (stereo partly drawn) | < 1000 | – |
| CCO[C@@H](C1C[C@@H](C)[C@H]2C(O1)[C@H](O)[C@@]1(C)C3CC[C@H]4C(C)(C)[C@@H](O[C@H]5CN(Cc6ncco6)CCO5)CCC45C[C@@]35CC[C@]21C)C(C)(C)O (stereo partly drawn) | < 1000 | 1000 to 10000 |
| CCO[C@@H](C1C[C@@H](C)[C@H]2C(O1)[C@H](O)[C@@]1(C)C3CC[C@H]4C(C)(C)[C@@H](O[C@H]5CN(c6ncc(F)cn6)CCO5)CCC45C[C@@]35CC[C@]21C)C(C)(C)O (stereo partly drawn) | 1000 to 10000 | 1000 to 10000 |
| CCO[C@@H]([C@H]1C[C@@H](C)[C@H]2[C@H](O1)[C@H](O)[C@@]1(C)[C@@H]3CC[C@H]4C(C)(C)[C@@H](O[C@H]5CN(Cc6nccn6C)CCO5)CCC45C[C@@]35CC[C@]21C)C(C)(C)O (stereo partly drawn) | < 1000 | 1000 to 10000 |
| CCO[C@@H]([C@H]1C[C@@H](C)[C@H]2[C@H](O1)[C@H](O)[C@@]1(C)[C@@H]3CC[C@H]4C(C)(C)[C@@H](O[C@H]5CN(CC(F)(F)F)CCO5)CCC45C[C@@]35CC[C@]21C)C(C)(C)O (stereo partly drawn) | 1000 to 10000 | 1000 to 10000 |
| CCO[C@@H]([C@H]1C[C@@H](C)[C@H]2[C@H](O1)[C@H](O)[C@@]1(C)[C@@H]3CC[C@H]4C(C)(C)[C@@H](O[C@H]5CN(c6ncccn6)CCO5)CCC45C[C@@]35CC[C@]21C)C(C)(C)O (stereo partly drawn) | 1000 to 10000 | 1000 to 10000 |
| CCO[C@@H]([C@H]1C[C@@H](C)[C@H]2[C@H](O1)[C@H](O)[C@@]1(C)[C@@H]3CC[C@H]4C(C)(C)[C@@H](O[C@H]5CN(CC(F)F)CCO5)CCC45C[C@@]35CC[C@]21C)C(C)(C)O (stereo partly drawn) | < 1000 | 1000 to 10000 |
| CCO[C@@H]([C@H]1C[C@@H](C)[C@H]2[C@H](O1)[C@H](O)[C@@]1(C)[C@@H]3CC[C@H]4C(C)(C)[C@@H](OC(=O)C5CN(C6COC6)C5)CCC45C[C@@]35CC[C@]21C)C(C)(C)O (stereo partly drawn) | < 1000 | 1000 to 10000 |
| CCO[C@@H]([C@H]1C[C@@H](C)[C@H]2[C@H](O1)[C@H](O)[C@@]1(C)[C@@H]3CC[C@H]4C(C)(C)[C@@H](OC(=O)[C@H]5CN(C)CCO5)CCC45C[C@@]35CC[C@]21C)C(C)(C)O (stereo partly drawn) | < 1000 | 1000 to 10000 |
| CCO[C@@H]([C@H]1C[C@@H](C)[C@H]2[C@H](O1)[C@H](O)[C@@]1(C)[C@@H]3CC[C@H]4C(C)(C)[C@@H](OC(=O)[C@@H]5CN(C)CCO5)CC[C@@]45C[C@@]35CC[C@]21C)C(C)(C)O | < 1000 | 1000 to 10000 |
| CCO[C@@H]([C@H]1C[C@@H](C)[C@H]2[C@H](O1)[C@H](O)[C@@]1(C)[C@@H]3CC[C@H]4C(C)(C)[C@@H](OC(=O)[C@@H]5CCCN5C(=O)OC(C)(C)C)CCC45C[C@@]35CC[C@]21C)C(C)(C)O (stereo partly drawn) | 1000 to 10000 | 1000 to 10000 |
| CCO[C@@H]([C@H]1C[C@@H](C)[C@H]2[C@H](O1)[C@H](O)[C@@]1(C)[C@@H]3CC[C@H]4C(C)(C)[C@@H](OC(=O)[C@H]5CN(C(=O)OC(C)(C)C)CCO5)CCC45C[C@@]35CC[C@]21C)C(C)(C)O (stereo partly drawn) | 1000 to 10000 | 1000 to 10000 |
| CCO[C@@H]([C@H]1C[C@@H](C)[C@H]2[C@H](O1)[C@H](O)[C@@]1(C)[C@@H]3CC[C@H]4C(C)(C)[C@@H](OC(=O)[C@H]5COCCN5C(=O)OC(C)(C)C)CCC45C[C@@]35CC[C@]21C)C(C)(C)O (stereo partly drawn) | 1000 to 10000 | 1000 to 10000 |
| CCO[C@@H]([C@H]1C[C@@H](C)[C@H]2[C@H](O1)[C@H](O)[C@@]1(C)[C@@H]3CC[C@H]4C(C)(C)[C@@H](OC(=O)[C@@H]5CN(C(=O)OC(C)(C)C)CCO5)CCC45C[C@@]35CC[C@]21C)C(C)(C)O (stereo partly drawn) | < 1000 | < 1000 |
| CCO[C@@H]([C@H]1C[C@@H](C)[C@H]2[C@H](O1)[C@H](O)[C@@]1(C)[C@@H]3CC[C@H]4C(C)(C)[C@@H](OC(=O)[C@@H]5COCCN5C(=O)OC(C)(C)C)CCC45C[C@@]35CC[C@]21C)C(C)(C)O (stereo partly drawn) | 1000 to 10000 | 1000 to 10000 |
| CCO[C@@H]([C@H]1C[C@@H](C)[C@H]2[C@H](O1)[C@H](O)[C@@]1(C)[C@@H]3CC[C@H]4C(C)(C)[C@@H](O[C@H]5CN(C6CN(S(C)(=O)=O)C6)CCO5)CCC45C[C@@]35CC[C@]21C)C(C)(C)O (stereo partly drawn) | < 1000 | < 1000 |
| CCO[C@@H]([C@H]1C[C@@H](C)[C@H]2[C@H](O1)[C@H](O)[C@@]1(C)[C@@H]3CC[C@H]4C(C)(C)[C@@H](OC(=O)[C@@H]5CNCCO5)CCC45C[C@@]35CC[C@]21C)C(C)(C)O (stereo partly drawn) | < 1000 | < 1000 |
| CCO[C@@H]([C@H]1C[C@@H](C)[C@H]2[C@H](O1)[C@H](O)[C@@]1(C)[C@@H]3CC[C@H]4C(C)(C)[C@@H](OC(=O)[C@@H]5COCCN5CCOC)CCC45C[C@@]35CC[C@]21C)C(C)(C)O (stereo partly drawn) | < 1000 | 1000 to 10000 |
| CCO[C@@H]([C@H]1C[C@@H](C)[C@H]2[C@H](O1)[C@H](O)[C@@]1(C)[C@@H]3CC[C@H]4C(C)(C)[C@@H](OC(=O)[C@H]5COCCN5C(C)C)CCC45C[C@@]35CC[C@]21C)C(C)(C)O (stereo partly drawn) | < 1000 | 1000 to 10000 |
| CCO[C@@H]([C@H]1C[C@@H](C)[C@H]2[C@H](O1)[C@H](O)[C@@]1(C)[C@@H]3CC[C@H]4C(C)(C)[C@@H](O[C@H]5CN(C(CO)CO)CCO5)CCC45C[C@@]35CC[C@]21C)C(C)(C)O (stereo partly drawn) | < 1000 | < 1000 |
| C[C@@H]1C[C@H]([C@H](OCCO)C(C)(C)O)O[C@H]2[C@H]1[C@@]1(C)CC[C@@]34CC35CC[C@H](O[C@H]3CN(C6CN(C7COC7)C6)CCO3)C(C)(C)[C@@H]5CC[C@H]4[C@]1(C)[C@H]2O (stereo partly drawn) | 1000 to 10000 | 1000 to 10000 |
| CCO[C@@H]([C@H]1C[C@@H](C)[C@H]2[C@H](O1)[C@H](O)[C@@]1(C)[C@@H]3CC[C@H]4C(C)(C)C(O[C@H]5CN(CCNCCNC(=O)CCC6(C)N=N6)CCO5)CC[C@@]45CC35CC[C@]21C)C(C)(C)O (stereo partly drawn) | < 1000 | 1000 to 10000 |

Reference: patent publication US20130060013A1, “Compounds useful for treating neurodegenerative disorders” (SATORI PHARMACEUTICALS, INC., priority 2011, published 2013)
